Literature values in PMC9516332 (Frontiers in Oncology, 2022).
Like-named read-outs stand apart in the source and are kept apart here.

Key:
[1] = target: T1, panel of 255 wild-type kinases (Homo sapiens, UniProt Q13237); conditions: CGK2 kinase assay, 1 µmol/L single concentration, cited from earlier work
T1 sequence (Q13237 1-762): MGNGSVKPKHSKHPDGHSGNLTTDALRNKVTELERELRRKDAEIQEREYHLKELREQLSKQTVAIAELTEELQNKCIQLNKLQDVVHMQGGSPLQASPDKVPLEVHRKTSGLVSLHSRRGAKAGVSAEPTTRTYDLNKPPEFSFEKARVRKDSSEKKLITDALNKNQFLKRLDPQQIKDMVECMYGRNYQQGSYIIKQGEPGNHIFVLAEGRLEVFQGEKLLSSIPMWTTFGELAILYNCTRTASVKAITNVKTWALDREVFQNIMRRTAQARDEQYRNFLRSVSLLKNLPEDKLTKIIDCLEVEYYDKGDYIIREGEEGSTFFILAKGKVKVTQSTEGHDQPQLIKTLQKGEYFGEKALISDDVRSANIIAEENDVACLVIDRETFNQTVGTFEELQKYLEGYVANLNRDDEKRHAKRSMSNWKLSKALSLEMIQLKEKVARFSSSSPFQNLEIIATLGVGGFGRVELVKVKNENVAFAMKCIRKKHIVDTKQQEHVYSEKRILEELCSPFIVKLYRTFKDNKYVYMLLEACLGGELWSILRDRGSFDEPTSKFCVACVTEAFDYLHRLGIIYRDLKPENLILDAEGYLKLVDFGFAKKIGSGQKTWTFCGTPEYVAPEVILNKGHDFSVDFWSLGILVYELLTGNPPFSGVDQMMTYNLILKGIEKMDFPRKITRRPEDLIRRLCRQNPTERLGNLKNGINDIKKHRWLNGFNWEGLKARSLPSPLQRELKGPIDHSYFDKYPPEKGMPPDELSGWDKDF

[2] = target: panel of 255 wild-type kinases (Homo sapiens, UniProt O43683); conditions: BUB1/BUB3 kinase assay; 1 µmol/L single concentration; ref DOI: 10.1158/1535-7163.MCT-18-0877; cited from earlier work
[3] = target: T2, panel of 255 wild-type kinases (Homo sapiens, UniProt O43781); conditions: kinase DYRK3, 1 µmol/L single concentration, cited from earlier work
T2 sequence (O43781 1-588): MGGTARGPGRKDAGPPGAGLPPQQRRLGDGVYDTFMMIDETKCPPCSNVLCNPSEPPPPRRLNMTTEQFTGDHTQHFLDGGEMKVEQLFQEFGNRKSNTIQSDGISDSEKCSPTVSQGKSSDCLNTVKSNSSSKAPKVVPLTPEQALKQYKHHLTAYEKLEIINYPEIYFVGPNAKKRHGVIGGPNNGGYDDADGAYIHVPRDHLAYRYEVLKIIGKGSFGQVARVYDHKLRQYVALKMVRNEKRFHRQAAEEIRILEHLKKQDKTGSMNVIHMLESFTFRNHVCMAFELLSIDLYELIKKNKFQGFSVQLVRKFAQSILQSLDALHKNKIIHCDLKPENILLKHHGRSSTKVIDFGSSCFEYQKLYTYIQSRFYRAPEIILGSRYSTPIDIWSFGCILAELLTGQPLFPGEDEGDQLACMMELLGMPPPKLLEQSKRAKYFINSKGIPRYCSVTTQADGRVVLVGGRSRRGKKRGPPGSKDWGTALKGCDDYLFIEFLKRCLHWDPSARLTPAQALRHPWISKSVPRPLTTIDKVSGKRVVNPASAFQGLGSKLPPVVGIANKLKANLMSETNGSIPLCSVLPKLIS

[4] = target: panel of 255 wild-type kinases (Homo sapiens, UniProt P07947); conditions: kinase YES, 1 µmol/L single concentration, cited from earlier work
[5] = target: panel of 255 wild-type kinases (Homo sapiens, UniProt Q00535); conditions: CDK5/p25 kinase assay, 1 µmol/L single concentration, cited from earlier work
[6] = target: T3, panel of 255 wild-type kinases (Homo sapiens, UniProt Q13976); conditions: kinase PGK, 1 µmol/L single concentration, cited from earlier work
T3 sequence (Q13976 1-671): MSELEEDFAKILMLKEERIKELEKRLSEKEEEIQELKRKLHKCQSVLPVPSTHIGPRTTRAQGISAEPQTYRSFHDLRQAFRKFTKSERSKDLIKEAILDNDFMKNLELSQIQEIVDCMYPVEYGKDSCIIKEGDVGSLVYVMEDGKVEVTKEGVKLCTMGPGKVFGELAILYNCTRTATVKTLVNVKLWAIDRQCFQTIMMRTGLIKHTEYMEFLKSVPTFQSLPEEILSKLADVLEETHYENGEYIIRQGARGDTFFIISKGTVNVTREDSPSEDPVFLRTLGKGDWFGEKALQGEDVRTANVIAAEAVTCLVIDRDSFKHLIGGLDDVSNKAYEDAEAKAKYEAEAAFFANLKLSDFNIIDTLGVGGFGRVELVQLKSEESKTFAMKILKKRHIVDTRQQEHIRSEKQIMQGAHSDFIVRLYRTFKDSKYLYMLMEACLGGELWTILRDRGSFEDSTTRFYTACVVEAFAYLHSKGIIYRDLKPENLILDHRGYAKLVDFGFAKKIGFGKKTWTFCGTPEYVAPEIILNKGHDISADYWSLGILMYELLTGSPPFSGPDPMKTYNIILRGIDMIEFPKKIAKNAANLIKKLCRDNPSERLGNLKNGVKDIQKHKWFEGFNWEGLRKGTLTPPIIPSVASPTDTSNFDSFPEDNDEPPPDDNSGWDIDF

[7] = target: panel of 255 wild-type kinases (Homo sapiens, UniProt P53350); conditions: kinase PLK1, 1 µmol/L single concentration, cited from earlier work
[8] = target: panel of 255 wild-type kinases (Homo sapiens, UniProt P41240); conditions: kinase CSK, 1 µmol/L single concentration, cited from earlier work
[9] = target: panel of 255 wild-type kinases (Homo sapiens, UniProt P49137); conditions: kinase MAPKAPK2, 1 µmol/L single concentration, cited from earlier work
[10] = ref DOI: 10.1158/1535-7163.MCT-18-0877
[11] = ref DOI: 10.1371/journal.pone.0092146

Structure (SMILES): O=C(c1ccc(F)c(F)c1Nc1ccc(I)cc1F)N1CC(O)([C@@H]2CCCCN2)C1 [cobimetinib]
- %-inhibition CGK2 [1, 10]: 0.273%
- %-inhibition BUB1/BUB3 [2]: 6.61%
- %-inhibition at 1 µmol/L, DYRK3 [3, 10]: -3.62%
- %-inhibition at 1 µmol/L, YES [4, 10]: -0.706%
- %-inhibition CDK5/p25 [5, 10]: -7%
- %-inhibition at 1 µmol/L, PGK [6, 10]: 2.54%
- %-inhibition at 1 µmol/L, PLK1 [7, 10]: -1.08%
- %-inhibition at 1 µmol/L, CSK [8, 10]: 5.62%
- %-inhibition at 1 µmol/L, MAPKAPK2 [9, 10]: -7%

Structure (SMILES): C=CC(=O)Nc1cc(Nc2nccc(-c3cn(C)c4ccccc34)n2)c(OC)cc1N(C)CCN(C)C [osimertinib]
- %-inhibition CGK2 [1, 10]: 11%
- %-inhibition BUB1/BUB3 [2]: 11%
- %-inhibition at 1 µmol/L, DYRK3 [3, 10]: 21%
- %-inhibition at 1 µmol/L, YES [4, 10]: 13%
- %-inhibition CDK5/p25 [5, 10]: -0.719%
- %-inhibition at 1 µmol/L, PGK [6, 10]: 3.61%
- %-inhibition at 1 µmol/L, PLK1 [7, 10]: -0.476%
- %-inhibition at 1 µmol/L, CSK [8, 10]: 9%
- %-inhibition at 1 µmol/L, MAPKAPK2 [9, 10]: -9%

Structure (SMILES): Cc1cc(Nc2ncc(Cl)c(Nc3ccccc3S(=O)(=O)C(C)C)n2)c(OC(C)C)cc1C1CCNCC1 [ceritinib]
- %-inhibition CGK2 [1, 10]: 14%
- %-inhibition BUB1/BUB3 [2]: 5.67%
- %-inhibition at 1 µmol/L, DYRK3 [3, 10]: -2.12%
- %-inhibition at 1 µmol/L, YES [4, 10]: 31%
- %-inhibition CDK5/p25 [5, 10]: -22%
- %-inhibition at 1 µmol/L, PGK [6, 10]: 38%
- %-inhibition at 1 µmol/L, CSK [8, 10]: 3%
- %-inhibition at 1 µmol/L, MAPKAPK2 [9, 10]: -14%

Structure (SMILES): CO[C@@H]1[C@H](N(C)C(=O)c2ccccc2)C[C@H]2O[C@]1(C)n1c3ccccc3c3c4c(c5c6ccccc6n2c5c31)C(=O)NC4 [midostaurin]
- %-inhibition BUB1/BUB3 [2]: 6.4%
- %-inhibition at 1 µmol/L, YES [4, 10]: 89%
- %-inhibition at 1 µmol/L, PGK [6, 10]: 98%
- %-inhibition at 1 µmol/L, PLK1 [7, 10]: 6%
- %-inhibition at 1 µmol/L, CSK [8, 10]: 58%
- %-inhibition at 1 µmol/L, MAPKAPK2 [9, 10]: -12%

Structure (SMILES): C=CC(=O)N1CCC[C@@H](n2nc(-c3ccc(Oc4ccccc4)cc3)c3c(N)ncnc32)C1 [ibrutinib]
- %-inhibition CGK2 [1, 10]: -1.77%
- %-inhibition BUB1/BUB3 [2]: 5%
- %-inhibition at 1 µmol/L, DYRK3 [3, 10]: -4%
- %-inhibition CDK5/p25 [5, 10]: -5%
- %-inhibition at 1 µmol/L, PGK [6, 10]: 1.89%
- %-inhibition at 1 µmol/L, PLK1 [7, 10]: -2.28%
- %-inhibition at 1 µmol/L, MAPKAPK2 [9, 10]: -13%

Structure (SMILES): C[C@@H](Oc1cc(-c2cnn(C3CCNCC3)c2)cnc1N)c1c(Cl)ccc(F)c1Cl [crizotinib]
- %-inhibition CGK2 [1, 11]: -0.915%
- %-inhibition at 1 µmol/L, DYRK3 [3, 11]: 14%
- %-inhibition at 1 µmol/L, YES [4, 11]: 65%
- %-inhibition CDK5/p25 [5, 11]: -8%
- %-inhibition at 1 µmol/L, PGK [6, 11]: -2.6%
- %-inhibition at 1 µmol/L, PLK1 [7, 11]: -3%
- %-inhibition at 1 µmol/L, CSK [8, 11]: 9%
- %-inhibition at 1 µmol/L, MAPKAPK2 [9, 11]: -17%
